According to patent publication US8609715B2, “Heteroarylcarboxylic acid ester derivative” (Ajinomoto Co., Inc., priority 2009, dated 2013):
Counter-ions that a name gives are not always drawn.

Key:
KK-A^y/JCL mice = assay: Evaluation of antidiabetic action (blood glucose level); format: in vivo
Description: Evaluation of Antidiabetic Action KK-A^y/JCL mice (male, 5- to 7-week-old, CLEA Japan, Inc.) known to spontaneously develop obese type 2 diabetes were purchased and, after one week of preliminary rearing period, grouped (6 per group) with the body weight and non-fasting blood glucose levels as indices. The animals were individually housed in a polycarbonate cage and allowed to drink water freely from a watering bottle. […] CRF-1 alone was given to the control group. After one week of dosing period, the blood (6 μL) was drawn from the tail vein of the animals, and the blood glucose level was measured by ACCU-CHEK Aviva (Roche Diagnostics K.K.). A significant difference from the control group was detected by Dunnett's multiple comparison test or Student's t-test (significance level less than 5%).

[1] = molecular target: recombinant human enteropeptidase (Homo sapiens (Human), UniProt P98073); assay: Measurement of enteropeptidase inhibitory activity; format: biochemical; conditions: Dixon plot
Description: Measurement of Enteropeptidase Inhibitory Activity
Using a 96 well plate (#3915, Costar), a test compound (25 μL), 400 mM Tris-HCl buffer (pH 8.0, 25 μL) and 0.5 mg/mL fluorescence enzyme substrate (Gly-Asp-Asp-Asp-Asp-Lys-β-Naphtylamide, 25 μL) were mixed, and recombinant human enteropeptidase (R&D Systems, Inc., 25 μL) was added. Using a fluorescence plate reader fmax (Molecular Devices, Inc.), the reaction rate was measured from the time-course changes at excitation wavelength 320 nm and fluorescence wavelength 405 nm. The Ki value was calculated from the concentration of the test compound, reciprocal of reaction rate, and Km value of the enzyme substrate, and by using Dixon plot.

[2] = dose 5.6 mg/100 g mixed in feed CRF-1, after one week of dosing

Chain of recombinant human enteropeptidase (P98073 whole entry): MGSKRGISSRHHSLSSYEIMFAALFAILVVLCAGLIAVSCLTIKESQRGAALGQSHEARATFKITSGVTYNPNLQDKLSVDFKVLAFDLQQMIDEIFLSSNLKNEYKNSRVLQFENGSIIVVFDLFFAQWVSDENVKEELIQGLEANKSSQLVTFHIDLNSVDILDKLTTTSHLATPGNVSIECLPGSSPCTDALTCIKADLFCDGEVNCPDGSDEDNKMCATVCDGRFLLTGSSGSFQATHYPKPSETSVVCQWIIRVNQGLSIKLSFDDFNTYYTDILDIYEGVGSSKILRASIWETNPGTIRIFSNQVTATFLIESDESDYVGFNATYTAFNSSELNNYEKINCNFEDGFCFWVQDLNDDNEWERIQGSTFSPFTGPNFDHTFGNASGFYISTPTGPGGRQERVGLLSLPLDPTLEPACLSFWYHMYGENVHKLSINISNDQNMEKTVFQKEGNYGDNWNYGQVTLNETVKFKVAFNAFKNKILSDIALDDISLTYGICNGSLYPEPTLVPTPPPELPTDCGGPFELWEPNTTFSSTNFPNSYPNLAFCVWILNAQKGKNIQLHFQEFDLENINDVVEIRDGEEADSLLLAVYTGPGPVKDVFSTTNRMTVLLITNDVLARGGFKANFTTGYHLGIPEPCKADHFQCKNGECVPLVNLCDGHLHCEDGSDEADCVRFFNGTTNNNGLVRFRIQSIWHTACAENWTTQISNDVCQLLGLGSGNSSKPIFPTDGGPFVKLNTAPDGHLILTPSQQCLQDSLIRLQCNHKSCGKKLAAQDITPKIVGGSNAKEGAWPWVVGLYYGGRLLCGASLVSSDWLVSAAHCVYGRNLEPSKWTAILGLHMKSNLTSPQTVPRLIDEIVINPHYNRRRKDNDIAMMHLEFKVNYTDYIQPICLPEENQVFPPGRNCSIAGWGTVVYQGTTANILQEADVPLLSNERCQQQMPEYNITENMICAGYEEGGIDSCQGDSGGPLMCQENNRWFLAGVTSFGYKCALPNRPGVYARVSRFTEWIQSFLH

| Compound | Ki [1] [nM] | also measured |
| --- | --- | --- |
| CC(Cc1ccc(C(=O)Oc2ccc(C(=N)N)cc2)o1)C(=O)N[C@H](CC(=O)O)C(=O)O.O=C(O)C(F)(F)F (stereo partly drawn) [A-28 hydrochloride] | – | Mean blood glucose level (KK-A^y/JCL mice; [2]): 219 mg/dL |
| CC(Cc1ccc(C(=O)Oc2ccc(C(=N)N)cc2)s1)C(=O)N[C@@H](CC(=O)O)C(=O)O.O=C(O)C(F)(F)F (stereo partly drawn) [B-18 hydrochloride] | – | Mean blood glucose level (KK-A^y/JCL mice; [2]): 217 mg/dL; Mean blood glucose level (KK-A^y/JCL mice; dose 16.8 mg/100 g mixed in feed CRF-1, after one week of dosing): 138 mg/dL |
| CC(Cc1ccc(C(=O)Oc2ccc(C(=N)N)cc2F)s1)C(=O)N[C@@H](CC(=O)O)C(=O)O.O=C(O)C(F)(F)F (stereo partly drawn) [B-20 hydrochloride] | – | Mean blood glucose level (KK-A^y/JCL mice; [2]): 197 mg/dL |
| CC(Cc1ccc(C(=O)Oc2ccc(C(=N)N)cc2)s1)C(=O)N[C@H](CC(=O)O)C(=O)O.Cl (stereo partly drawn) [B-23 hydrochloride] | – | Mean blood glucose level (KK-A^y/JCL mice; [2]): 198 mg/dL |
| N=C(N)c1ccc(OC(=O)c2ccc(CCC(=O)N[C@@H](CC(=O)O)C(=O)O)s2)c(F)c1.O=C(O)C(F)(F)F [B-32 hydrochloride] | – | Mean blood glucose level (KK-A^y/JCL mice; [2]): 249 mg/dL |
| CC(CCC(=O)N[C@@H](CC(=O)O)C(=O)O)Cc1ccc(C(=O)Oc2ccc(C(=N)N)cc2)s1 (stereo partly drawn) [Compound B-50] | 0.89 | – |
| CC(Cc1cc(C(=O)Oc2ccc(C(=N)N)cc2F)cs1)C(=O)O (stereo not drawn) [Compound B-51, 3-[4-(4-amidino-2-fluorophenoxycarbonyl)thiophen-2-yl]-2-methylpropanoic acid trifluoroacetic acid salt] | 0.72 | – |
| CC(Cc1cc(C(=O)Oc2ccc(C(=N)N)cc2F)cs1)C(=O)N[C@@H](CC(=O)O)C(=O)O (stereo partly drawn) [Compound B-52] | 0.39 | – |
| CC(Cc1cc(C(=O)Oc2ccc(C(=N)N)cc2)cs1)C(=O)N[C@@H](CC(=O)O)C(=O)O (stereo partly drawn) [Compound B-53] | 4.8 | – |
| N=C(N)c1ccc(OC(=O)c2csc(CCC(=O)N[C@@H](CC(=O)O)C(=O)O)c2)c(F)c1 [Compound B-54, N-{3-[4-(4-amidino-2-fluorophenoxycarbonyl)thiophen-2-yl]propanoyl}-L-aspartic acid trifluoroacetic acid salt] | 0.58 | – |
| CC(Cc1csc(C(=O)Oc2ccc(C(=N)N)cc2)c1)C(=O)N[C@@H](CC(=O)O)C(=O)O (stereo partly drawn) [Compound B-55] | 0.98 | – |
| N=C(N)c1ccc(OC(=O)c2ccc(-c3ccc(C(=O)N[C@@H](CC(=O)O)C(=O)O)cc3)s2)cc1 [Compound B-56] | 9.5 | – |
| N=C(N)c1ccc(OC(=O)c2ccc(-c3ccc(C(=O)N[C@@H](CC(=O)O)C(=O)O)cc3)s2)c(F)c1 [Compound B-57] | 3 | – |
| N=C(N)c1ccc(OC(=O)c2ccc(-c3cccc(C(=O)N[C@@H](CC(=O)O)C(=O)O)c3)s2)cc1 [Compound B-58] | 9.8 | – |
| N=C(N)c1ccc(OC(=O)c2ccc(-c3ccc(C(=O)N[C@@H](CC(=O)O)C(=O)O)s3)s2)cc1 [Compound B-59, N-{5-[5-(4-amidinophenoxycarbonyl)-thiophen-2-yl]thiophen-2-ylcarbonyl}-L-aspartic acid trifluoroacetic acid salt] | 8.2 | – |
| N=C(N)c1ccc(OC(=O)c2ccc(CC(=O)N[C@@H](CC(=O)O)C(=O)O)s2)c(F)c1 [Compound B-60, N-[5-(4-amidino-2-fluorophenoxycarbonyl)thiophen-2-ylacetyl]-L-aspartic acid trifluoroacetic acid salt] | 0.64 | – |
| Cc1cc(C(=O)Oc2ccc(C(=N)N)cc2F)sc1CCC(=O)N[C@@H](CC(=O)O)C(=O)O [Compound B-61, N-{3-[5-(4-amidino-2-fluorophenoxycarbonyl)-3-methylthiophen-2-yl]propanoyl}-L-aspartic acid trifluoroacetic acid salt] | 0.13 | – |
| N=C(N)c1ccc(OC(=O)c2ccc(CCC(=O)N[C@@H](CCC(=O)O)C(=O)O)s2)c(F)c1 [Compound B-62] | 0.57 | – |
| C=CCN(C(=O)CCc1ccc(C(=O)Oc2ccc(C(=N)N)cc2F)s1)[C@@H](CC(=O)O)C(=O)O [Compound B-63, N-{3-[5-(4-amidino-2-fluorophenoxycarbonyl)thiophen-2-yl]propanoyl}-N-allyl-L-aspartic acid trifluoroacetic acid salt] | 0.55 | – |
| CC(C)(Cc1ccc(C(=O)Oc2ccc(C(=N)N)cc2F)s1)C(=O)N[C@@H](CC(=O)O)C(=O)O [Compound B-64, N-{3-[5-(4-amidino-2-fluorophenoxycarbonyl)thiophen-2-yl]-2,2-dimethylpropanoyl}-L-aspartic acid trifluoroacetic acid salt] | 0.14 | – |
| N=C(N)c1ccc(OC(=O)c2ccc(CCC(=O)N[C@@H](Cc3ccc(O)cc3)C(=O)O)s2)c(F)c1 [Compound B-65] | 3.2 | – |
| N=C(N)c1ccc(OC(=O)c2ccc(CCC(=O)N[C@@H](CO)C(=O)O)s2)c(F)c1 [Compound B-66] | 0.73 | – |
| C/C(=C\c1nc(C(=O)Oc2ccc(C(=N)N)cc2)cs1)C(=O)N(CCCO)CC(=O)O [Compound C-2] | 5.67 | – |
